Our source for the GI50 and TGI values is PubChem BioAssay (NCI).

Among the test systems are HCT-116 colon; HS 578T breast; MDA-MB-231 breast; MOLT-4 leukemia; NCI-H522 lung; OVCAR-5 ovarian; OVCAR-8 ovarian; T-47D breast; TK-10 renal; U251 CNS.
Test in all cases: DTP human tumour cell line panel, 48 h

SMILES strings stand for the structures. “And” between values parts separate entries of the source, which are not always exact repeats. Equal values may be shown once.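 Results reflect a 48-hour exposure of cells in 96-well plates to compound at five concentrations. GI50: concentration for 50% inhibition of growth. TGI marks complete inhibition of growth.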

The GI50 is the concentration giving 50% growth inhibition. Usually TGI stands for the concentration at which net growth stops. A low value points to greater sensitivity of the cells.

With `COC1=C(OC)C(=O)C(CCCCCCCCCCO)=C(C)C1=O`, the GI50 was 4.46 µM in the experiment with HCT-116 colon; 18.3 µM in the experiment with HS 578T breast; 5.24 µM with MDA-MB-231 breast; 4.54 µM with MOLT-4 leukemia; 11.2 µM in the experiment with NCI-H522 lung; 10.7 µM in the experiment with OVCAR-5 ovarian. The GI50 in the experiment on OVCAR-8 ovarian was 3.76 µM; in the experiment on T-47D breast, 2.44 µM; in the experiment with TK-10 renal, 16.6 µM; with U251 CNS, 3.03 µM. For the same compound, the TGI in the experiment on HCT-116 colon is 16.1 µM; in the experiment with HS 578T breast, more than 100 µM; in the experiment with MDA-MB-231 breast it was 22 µM; with MOLT-4 leukemia it was 21.7 µM; in the experiment with NCI-H522 lung it was 35.3 µM; in the experiment on OVCAR-5 ovarian, 25.5 µM. Besides, the TGI with OVCAR-8 ovarian turned out to be 16.2 µM; in the experiment on T-47D breast, 7.43 µM; in the experiment with TK-10 renal it was 30.6 µM; in the experiment on U251 CNS, 12.5 µM.

For `COc1ccc(-c2[nH]c3ccccc3c2/C=C(\C#N)S(=O)(=O)c2ccccc2)cc1`, the GI50 is 0.391 µM with HCT-116 colon; 0.671 µM in the experiment on HS 578T breast; 0.58 µM in the experiment on MDA-MB-231 breast; 0.666 µM in the experiment on MOLT-4 leukemia; 1.78 µM in the experiment on NCI-H522 lung; 1.84 µM in the experiment with OVCAR-5 ovarian. Moreover, the GI50 in the experiment with OVCAR-8 ovarian is 1.29 µM; in the experiment on T-47D breast it was 0.53 µM; with TK-10 renal, 3.65 µM; in the experiment on U251 CNS, 0.462 µM. For the same compound, the TGI in the experiment with HCT-116 colon is more than 38 µM; in the experiment with HS 578T breast, more than 46 µM; in the experiment with MDA-MB-231 breast, more than 60.8 µM; in the experiment on MOLT-4 leukemia, 8.39 µM; with OVCAR-5 ovarian it was more than 100 µM; in the experiment with OVCAR-8 ovarian, more than 26.6 µM. Besides, the concentration for total growth inhibition (TGI) in the experiment with T-47D breast is 6.15 µM; in the experiment with TK-10 renal it was more than 100 µM; in the experiment on U251 CNS it was more than 29.4 µM.

For `N#Cc1c(NC(=O)c2ccccc2F)sc2c1CCCC2`, the GI50 with HCT-116 colon was more than 25 µM; in the experiment on HS 578T breast, more than 21.9 µM; with MDA-MB-231 breast, more than 23.5 µM; in the experiment with MOLT-4 leukemia, more than 25 µM; in the experiment on NCI-H522 lung it was more than 12.8 µM; with OVCAR-5 ovarian, more than 25 µM. The GI50 with OVCAR-8 ovarian, with T-47D breast, with TK-10 renal and in the experiment on U251 CNS was more than 25 µM in each case. The TGI in the experiment on HCT-116 colon, in the experiment on HS 578T breast, in the experiment on MDA-MB-231 breast, with MOLT-4 leukemia, in the experiment on NCI-H522 lung and with OVCAR-5 ovarian was more than 25 µM throughout. Also, the total growth inhibition concentration (TGI) with OVCAR-8 ovarian, with T-47D breast, with TK-10 renal and with U251 CNS was more than 25 µM throughout.

Regarding `N#Cc1cc2c(cc1Cl)Sc1nnc(Nc3cccc4ccccc34)n1S2(=O)=O`, the GI50 in the experiment on HCT-116 colon is 3.98 µM; in the experiment with HS 578T breast, 2.89 µM; in the experiment on MDA-MB-231 breast, 2.49 µM; in the experiment on MOLT-4 leukemia it was 3.84 µM; with NCI-H522 lung, 21.6 µM; in the experiment with OVCAR-5 ovarian, 15.1 µM. Also, the GI50 is 30.2 µM with OVCAR-8 ovarian, 1.25 µM in the experiment with T-47D breast, 1.91 µM in the experiment on TK-10 renal and 3.23 µM in the experiment on U251 CNS. For the same compound, the TGI is 14.2 µM with HCT-116 colon; 9.74 µM with HS 578T breast; 6.96 µM in the experiment on MDA-MB-231 breast; more than 100 µM with MOLT-4 leukemia; more than 100 µM in the experiment on NCI-H522 lung; 28.4 µM with OVCAR-5 ovarian. Further, the TGI in the experiment on OVCAR-8 ovarian is more than 100 µM; in the experiment with T-47D breast, 3.67 µM; in the experiment with TK-10 renal, 5.07 µM; in the experiment on U251 CNS, 10.7 µM.

As to `CSC1=Nc2c(c(C)c(-c3ccccc3)n2COC(CO)CO)C2=NC(=O)CN12`, the GI50 in the experiment on HCT-116 colon, with HS 578T breast, with MDA-MB-231 breast, in the experiment on MOLT-4 leukemia, in the experiment with NCI-H522 lung and in the experiment with OVCAR-5 ovarian was more than 100 µM throughout. The GI50 in the experiment with OVCAR-8 ovarian, in the experiment with T-47D breast, with TK-10 renal and with U251 CNS was more than 100 µM in each case. For the same compound, the TGI in the experiment with HCT-116 colon, in the experiment on HS 578T breast, with MDA-MB-231 breast, in the experiment on MOLT-4 leukemia, in the experiment on NCI-H522 lung and with OVCAR-5 ovarian was more than 100 µM in each case. The TGI in the experiment with OVCAR-8 ovarian, with T-47D breast, in the experiment on TK-10 renal and in the experiment with U251 CNS was more than 100 µM throughout.

Take `COc1ccc2c(c1)C(=O)c1c-2c(=O)n(CCCN(C)C)c2cc(OC)c(OC)cc12`: the GI50 with HCT-116 colon was 4.53 µM; in the experiment on HS 578T breast it was 16.2 µM; in the experiment on MDA-MB-231 breast, 14.4 µM; with MOLT-4 leukemia it was 0.149 µM; with NCI-H522 lung, 4.69 µM; in the experiment with OVCAR-5 ovarian, 20.3 µM. For the same compound, the GI50 is 4.6 µM in the experiment with OVCAR-8 ovarian, more than 100 µM in the experiment with T-47D breast, 15.5 µM with TK-10 renal and 1.23 µM in the experiment on U251 CNS. The TGI is 21.4 µM with HCT-116 colon; 36.7 µM in the experiment with HS 578T breast; 28.5 µM in the experiment on MDA-MB-231 breast; 12 µM in the experiment with MOLT-4 leukemia; 21.6 µM with NCI-H522 lung; 35.7 µM in the experiment on OVCAR-5 ovarian. The TGI with OVCAR-8 ovarian was 23 µM; in the experiment with T-47D breast, more than 100 µM; in the experiment with TK-10 renal, 29.3 µM; in the experiment with U251 CNS it was 18.9 µM.

For `CC1(C)[C@H](O)[C@H](F)C[C@@]2(C)Oc3ccc(C(=O)Nc4ccc5c(c4)NC(=O)C54CCN(CCCCC#N)CC4)cc3C[C@H]12`, the concentration for 50% growth inhibition (GI50) with HCT-116 colon was 0.149 µM and 1.33 µM; in the experiment with HS 578T breast, 0.00265 µM; in the experiment with MDA-MB-231 breast, 0.842 µM and 0.537 µM; in the experiment with MOLT-4 leukemia it was 0.00568 µM; in the experiment with NCI-H522 lung it was 1.77 µM and 1.02 µM; in the experiment on OVCAR-5 ovarian, 5.41 µM and 5.82 µM. The GI50 was 5.36 µM in the experiment with OVCAR-8 ovarian; 3.76 µM and 2.49 µM in the experiment with T-47D breast; 3.44 µM with TK-10 renal; 0.00414 µM in the experiment with U251 CNS. Besides, the TGI with HCT-116 colon is 10.7 µM; in the experiment with HS 578T breast it was 0.035 µM and 0.0352 µM; with MDA-MB-231 breast, 8.56 µM; in the experiment with MOLT-4 leukemia it was 1.09 µM and 1.63 µM; with NCI-H522 lung, 7.86 µM and 2.52 µM; in the experiment on OVCAR-5 ovarian it was 34.5 µM. Also, the TGI in the experiment with OVCAR-8 ovarian amounted to 45.1 µM; in the experiment with T-47D breast it was 26.1 µM; with TK-10 renal, 14.7 µM; with U251 CNS, 2.02 µM.

With `CC1=NNC(=S)NCCCN2CCN(CCCNC(=S)NN=C(C)C=NNC(=S)NCCCN3CCN(CCCNC(=S)NN=C1)CC3)CC2`, the TGI in the experiment on HCT-116 colon, with HS 578T breast, with MDA-MB-231 breast, with MOLT-4 leukemia, with NCI-H522 lung and in the experiment on OVCAR-5 ovarian was more than 100 µM throughout. Besides, the TGI with OVCAR-8 ovarian, in the experiment on T-47D breast, in the experiment on TK-10 renal and in the experiment on U251 CNS was more than 100 µM in each case.
